{"source": "patent US20090155767A1", "about": "“Methods for a predictive diagnostic test for tamoxifen” (priority 2007, published 2009)", "key": {"[1]": {"tested_on": "stage II invasive breast cancer (ER+ subset)", "assay": "Randomized clinical trial of two years of adjuvant tamoxifen vs no treatment (Swedish SBII:2a); recurrence-free survival by biomarker subgroup", "format": "in vivo, human", "settings": "for HR RFS: ER+", "text": "From 1986 to 1991, 564 patients enrolled in a a randomized clinical trial for adjuvant tamoxifen treatment in early breast cancer (Swedish SBII:2a)(15). Criteria for enrollment included premenopausal status or age less than 50 years, with stage II invasive breast cancer. Patients were randomized to receive two years of tamoxifen (n=276) or no treatment (control, n=288), and were followed for disease-free and overall survival, with a median follow-up of 13.9 years. A detailed description of the trial and results has previously been published (15,16).\nFor analysis of tamoxifen response, only the ER+ subset of patients were included (16). By IHC, a cut-off value of at least 10% nuclear immunoreactivity was used to classify patients as ER-positive.\nThe statistical calculations were performed using SPSS Version 13.0 (SPSS, Chicago, Ill.) and Stata Version 9.2 (StataCorp, College Station, Tex.). Pearson's correlation coefficient (R) was used to assess the correlation between log AQUA-EGFR scores from redundant tumor cores and Spearman's Rho to assess the correlation between AQUA-EGFR score and other variables. Recurrence-free survival (RFS) was chosen as endpoint in the present study. RFS included breast cancer specific death, distant, regional and local recurrences and all analyses were performed with the intention to treat rule. The AQUA-EGFR score was dichotomized at the median in order to avoid bias problems associated with cut-off optimization. Kaplan-Meier plots were used to illustrate the survival in high and low EGFR, respectively, and the log rank test to test for equality of survival curves. Hazard ratios were estimated using Cox regression. Proportional hazards assumptions were checked using Schoenfeld's test. The null hypothesis of equal treatment effects in high and low EGFR were evaluated using a Cox model with a term for the interaction between EGFR class and treatment. Cox models with continuous AQUA-EGFR score were also fitted. The original score and a logarithmic transformation of the score were evaluated. […] All p-values corresponded to two-sided tests and values less than 0.05 were considered significant."}, "[2]": {"tested_on": "stage II invasive breast cancer (ER+ subset)", "settings": "Cox univariate, tamoxifen vs control, cited from earlier work"}}, "note": "Read-outs that look alike come from different tables or passages of the source."}
{"smiles": "CC/C(=C(\\c1ccccc1)c1ccc(OCCN(C)C)cc1)c1ccccc1", "note": "[Tamoxifen]", "values": [{"measurement": "HR RFS", "setting": "[1]; Cox multivariate, Tamoxifen Treatment (+/-), n = 324 (available data in 186 patients)", "result": 0.571}, {"measurement": "HR RFS", "setting": "[1]; Cox univariate, tamoxifen vs control, EGFR-AQUA High, n = 73", "result": 1.14}, {"measurement": "HR RFS", "setting": "[1]; Cox univariate, tamoxifen vs control, EGFR-AQUA Low, n = 113", "result": 0.43}, {"measurement": "HR RFS", "setting": "[1]; Cox univariate, tamoxifen vs control, EGFR-IHC High, n = 27", "result": 0.73}, {"measurement": "HR RFS", "setting": "[1]; Cox univariate, tamoxifen vs control, EGFR-IHC Low, n = 232", "result": 0.57}, {"measurement": "HR RFS", "setting": "[1]; Cox univariate, tamoxifen vs control, HER2-AQUA High, N = 10", "result": 0.28}, {"measurement": "HR RFS", "setting": "[1]; Cox univariate, tamoxifen vs control, HER2-AQUA Low, N = 231", "result": 0.64}, {"measurement": "Effect of two years of adjuvant tamoxifen on RFS (log rank, Kaplan-Meier)", "setting": "[1]; ER+ patients with low EGFR expression (AQUA), n=113, p=0.01", "result": "significant effect"}, {"measurement": "Effect of two years of adjuvant tamoxifen on RFS (log rank, Kaplan-Meier)", "setting": "[1]; ER+ patients, EGFR high group (AQUA), n=73, p=0.69", "result": "no treatment effect"}, {"measurement": "10-year RFS", "setting": "[1]; ER+ tamoxifen treated patients with high EGFR expression (AQUA)", "result": 52, "unit": "%"}, {"measurement": "10-year RFS", "setting": "[1]; ER+ tamoxifen treated patients, EGFR low group (AQUA)", "result": 78, "unit": "%"}, {"measurement": "Association of high EGFR expression with outcome in tamoxifen-treated patients", "setting": "[1]; ER+ tamoxifen-treated patients, high vs low EGFR (AQUA), Log-Rank p=0.0411", "result": "shorter time to recurrence and breast cancer death"}, {"measurement": "HR RFS", "setting": "[2]; HER2 IHC 0-2+ (Herceptest), N = 252", "result": 0.64}, {"measurement": "HR RFS", "setting": "[2]; HER2 IHC 3+ (Herceptest), N = 23", "result": 0.67}]}
